Earlier results on 3 compounds are cited in patent publication US11622956B1, “Compound and method for treating diseases and disorders” (priority 2019, dated 2023).

The structures appear in SMILES notation.

For series [1], the system named is joint pain. The conditions noted are these: dogs.
Series [2] concerns ataxia. The conditions noted are these: high levels of hemp-derived CBD.
The conditions of series [3]: oral.
Series [4] has as its system static ataxia. The conditions noted are these: dogs, IV.

In the case of `COc1cccc(C2(O)CCCCC2CN(C)C)c1` (centres unmarked) [tramadol, Tramadol], the “peak vertical force or vertical impulse versus placebo” value in series [1] is “no improvement”.
In the case of `C=C(C)[C@@H]1CCC(C)=C[C@H]1c1c(O)cc(CCCCC)cc1O` [CBD, Cannabidiol], the dogs with ataxia in series [2] is 2 of the 10. In addition, in series [3], the “fraction of orally administered CBD ultimately absorbed, at best” value is given as 15-20% and the “fraction of orally administered CBD ultimately absorbed, on average” value was 5-10%.
In the case of `CCCCCc1cc(O)c2c(c1)OC(C)(C)[C@@H]1CCC(C)=C[C@@H]21` [THC, tetrahydrocannabinol], in series [4], the “dose producing static ataxia” value is over 0.5 mg/kg.
